Data set [1] deals with ErbB2 with Exon 20 YVMA insertion (HER2-YVMA) (Homo sapiens (Human), UniProt P04626, INS775YVMA). In words: Cellular phosphorylation assay, constitutive ErbB2 phosphorylation (Y1196) in engineered NIH 3T3 cells, Assay 4. The data set is classed as cell-based. The gist of the method: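 In-cell Western in NIH 3T3 cells carrying ErbB2 exon 20 YVMA insertion, with no ligand stimulation. One hour compound exposure at 37 °C before fixation and anti-pY1196 plus GAPDH staining with dual-wavelength fluorescence. IC50 derived after GAPDH normalization.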

The target in data set [2] is ErbB2 insYVMA (HER2-YVMA, SEQ ID NO: 2) (Homo sapiens, UniProt P04626, INS775YVMA/P1170A). In words: biochemical. Conditions: ErbB2 insYVMA enzyme assay.
The target in data set [3] is EGFR (Homo sapiens (Human), UniProt P00533). In words: ErbB enzyme assay (CisBio HTRF KinEASE-TK), Assay 3. In kind it is biochemical. The gist of the method: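 First, enzyme was reacted with compound, 1 mM ATP and 250 nM biotinylated tyrosine-kinase peptide for 30 min at 22 °C at pH 7.4. Next, streptavidin-XL665 and cryptate antibody were added for 1 h. Finally, HTRF ratios were converted to POC and fitted to yield IC50.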
In general terms: TR-FRET usually uses a lanthanide donor and a delayed reading to cut background.

Data set [4] addresses T1, MDR1 (P-gp) (Homo sapiens (Human), UniProt P08183). In words: MDR1 transfected MDCKII canine Mdr1 knockout permeability/efflux, Assay 7. Conditions: dog, MDCK-MDR1.
Procedure: Both MDR1 transfected LLC-PK1 (Assay 6) and MDR1 transfected MDCKII canine Mdr1 knockout cells (Assay 7) were cultured and plated according to manufacturer's recommendations with the exception that the passage media for the MDR1 transfected LLC-PK1 cell line contained only 2% fetal bovine serum so as to extend passage time out to seven days.
Both positive and negative controls were used to assess functionality of P-gp or BCRP efflux in the assays. Stock solutions for assay controls and the test article were prepared in DMSO for final test concentration of 1 μM. Final organic concentration in the assay was 1%. All dosing solutions contained 10 μM lucifer yellow to monitor MDCKII cell monolayer integrity.
For the apical to basolateral determination (A to B), 75 μL of the test article in transport buffer were added to the apical side of the individual transwells and 250 μL of basolateral media, without compound or lucifer yellow, were added to each well. For the basolateral to apical determination (B to A), 250 μL of test article in transport buffer were added to each well and 75 μL transport buffer, without compound or lucifer yellow, were added to each transwell. All tests were performed in triplicate, and each compound was tested for both apical to basolateral and basolateral to apical transport. The plates were incubated for 2 hours on a Lab-Line Instruments Titer Orbital Shaker (VWR, West Chester, PA) at 50 rpm and 37° C. with 5% CO2. All culture plates were removed from the incubator, 50 μL of media were removed from the apical and basolateral portion of each well, and added to 150 μL of 1 μM labetalol in 2:1 acetonitrile (ACN): H2O, v/v.
The plates were read using a Molecular Devices (Sunnyvale, CA) Gemini Fluorometer to evaluate the lucifer yellow concentrations at excitation/emission wavelengths of 425/535 nm. These values were accepted when found to be below 2% for apical to basolateral and 5% basolateral to apical flux across the MDR1-transfected LLC-PK1 or BCRP-transfected MDCKII cell monolayers. The plates were sealed, and the contents of each well analyzed by LC MS/MS. The compound concentrations were determined from the ratio of the peak areas of the compound to the internal standard (labetalol) in comparison to the dosing solution.
A MDS Sciex API 4000 (Applied Biosystems, Foster City, CA) mass spectrometer was used for detection of the analytes in the ion spray positive mode. Analyte responses were measured by multiple reaction monitoring (“MRM”) of transitions unique to each compound (the protonated precursor ion and selected product ions for each test article and m/z 329 to m/z 162 for labetalol, the internal standard.
The total run time, including re-equilibration, for a single injection was 1.2 minutes. […] The total run time, including re-equilibration, for a single injection was 0.61 minutes.
An efflux ratio is calculated from the mean apical to basolateral (A-B) Papp data and basolateral to apical (B-A) Papp data: Efflux ratio=Papp(B−A)/Papp(A−B)
The target of data set [5] is ErbB2 WT (Homo sapiens (Human), UniProt P04626). The experiment in a line: ErbB enzyme assay (CisBio HTRF KinEASE-TK), Assay 2. The data set is classed as biochemical. The gist of the method:
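Readout is HTRF KinEASE-TK, using Sa-XL665 and cryptate antibody for 1 h at 22 °C, as percent of control between DMSO-only (100) and pre-quenched (0) reactions. The kinase reaction runs 30 min at 22 °C with 1 mM ATP and 250 nM biotinylated TK substrate, in HEPES pH 7.4 with MgCl2 and 2% DMSO.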

Data set [6] deals with EGFR wild type (EGFR WT) (Homo sapiens (Human), UniProt P00533). The experiment in a line: Cellular phosphorylation assay, EGF-stimulated EGFR phosphorylation in engineered NIH 3T3 cells, Phospho-EGFR DuoSet IC ELISA, Assay 5. The data set is classed as cell-based. The gist of the method: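 Phospho-EGFR ELISA on lysates of engineered NIH 3T3 EGFR WT cells, IC50 derived from concentration curves. Cells plated at 20,000/well overnight, given compound dilutions 1 h at 37 °C, then rEGF 100 ng/ml for a further 10 min before lysis.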

Data set [7] deals with T1, MDR1 (P-gp). In words: MDR1 transfected LLC-PK1 permeability/efflux, Assay 6. Conditions: pig, LLC-PK1, Assay 6 Pe Ratio, efflux ratio Papp(B-A)/Papp(A-B), MDR1 transfected LLC-PK1.
Data set [8] deals with BCRP (Homo sapiens (Human), UniProt Q9UNQ0). In words: BCRP transfected MDCKII canine Mdr1 knockout permeability/efflux, Assay 9. Conditions: dog, Assay 9 Pe Ratio, efflux ratio Papp(B-A)/Papp(A-B), BCRP transfected MDCKII canine Mdr1 knockout.

Read-outs that look alike come from different tables or passages of the source.

ErbB2 with Exon 20 YVMA insertion (HER2-YVMA), sequence (P04626 other isoform, or with tags, fused parts or gaps ins YVMA behind 775): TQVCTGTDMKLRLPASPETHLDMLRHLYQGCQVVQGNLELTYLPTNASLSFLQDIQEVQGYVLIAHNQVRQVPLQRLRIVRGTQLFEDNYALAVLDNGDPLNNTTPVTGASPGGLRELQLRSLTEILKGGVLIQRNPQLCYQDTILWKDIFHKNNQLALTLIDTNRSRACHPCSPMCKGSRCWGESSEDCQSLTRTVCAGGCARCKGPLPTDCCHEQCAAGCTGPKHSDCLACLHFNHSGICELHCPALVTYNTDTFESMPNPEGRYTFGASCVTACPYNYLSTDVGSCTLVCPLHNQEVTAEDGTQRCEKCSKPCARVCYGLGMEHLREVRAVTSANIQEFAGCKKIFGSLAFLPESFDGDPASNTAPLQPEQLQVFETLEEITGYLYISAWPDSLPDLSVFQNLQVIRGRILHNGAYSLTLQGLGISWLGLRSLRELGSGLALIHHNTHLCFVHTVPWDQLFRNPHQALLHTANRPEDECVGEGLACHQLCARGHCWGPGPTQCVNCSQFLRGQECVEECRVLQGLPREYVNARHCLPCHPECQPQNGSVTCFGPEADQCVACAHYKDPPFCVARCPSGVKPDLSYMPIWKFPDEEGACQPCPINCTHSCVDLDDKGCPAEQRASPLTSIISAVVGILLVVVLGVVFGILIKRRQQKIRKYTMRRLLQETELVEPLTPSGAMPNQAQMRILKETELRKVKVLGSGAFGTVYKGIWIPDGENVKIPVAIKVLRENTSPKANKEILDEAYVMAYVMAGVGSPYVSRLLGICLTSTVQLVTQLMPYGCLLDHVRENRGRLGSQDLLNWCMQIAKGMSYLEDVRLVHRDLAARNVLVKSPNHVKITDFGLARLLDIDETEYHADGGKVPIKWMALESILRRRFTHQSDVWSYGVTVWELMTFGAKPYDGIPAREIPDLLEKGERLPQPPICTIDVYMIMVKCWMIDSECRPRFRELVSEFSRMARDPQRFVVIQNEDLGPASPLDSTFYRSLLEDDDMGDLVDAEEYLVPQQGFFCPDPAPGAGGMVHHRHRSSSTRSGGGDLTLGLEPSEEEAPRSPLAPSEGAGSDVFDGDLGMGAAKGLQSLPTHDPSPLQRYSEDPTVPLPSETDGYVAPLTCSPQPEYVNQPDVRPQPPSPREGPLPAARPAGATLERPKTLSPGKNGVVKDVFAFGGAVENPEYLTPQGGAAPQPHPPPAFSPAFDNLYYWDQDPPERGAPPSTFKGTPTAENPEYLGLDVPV
EGFR, sequence (P00533 25-1210): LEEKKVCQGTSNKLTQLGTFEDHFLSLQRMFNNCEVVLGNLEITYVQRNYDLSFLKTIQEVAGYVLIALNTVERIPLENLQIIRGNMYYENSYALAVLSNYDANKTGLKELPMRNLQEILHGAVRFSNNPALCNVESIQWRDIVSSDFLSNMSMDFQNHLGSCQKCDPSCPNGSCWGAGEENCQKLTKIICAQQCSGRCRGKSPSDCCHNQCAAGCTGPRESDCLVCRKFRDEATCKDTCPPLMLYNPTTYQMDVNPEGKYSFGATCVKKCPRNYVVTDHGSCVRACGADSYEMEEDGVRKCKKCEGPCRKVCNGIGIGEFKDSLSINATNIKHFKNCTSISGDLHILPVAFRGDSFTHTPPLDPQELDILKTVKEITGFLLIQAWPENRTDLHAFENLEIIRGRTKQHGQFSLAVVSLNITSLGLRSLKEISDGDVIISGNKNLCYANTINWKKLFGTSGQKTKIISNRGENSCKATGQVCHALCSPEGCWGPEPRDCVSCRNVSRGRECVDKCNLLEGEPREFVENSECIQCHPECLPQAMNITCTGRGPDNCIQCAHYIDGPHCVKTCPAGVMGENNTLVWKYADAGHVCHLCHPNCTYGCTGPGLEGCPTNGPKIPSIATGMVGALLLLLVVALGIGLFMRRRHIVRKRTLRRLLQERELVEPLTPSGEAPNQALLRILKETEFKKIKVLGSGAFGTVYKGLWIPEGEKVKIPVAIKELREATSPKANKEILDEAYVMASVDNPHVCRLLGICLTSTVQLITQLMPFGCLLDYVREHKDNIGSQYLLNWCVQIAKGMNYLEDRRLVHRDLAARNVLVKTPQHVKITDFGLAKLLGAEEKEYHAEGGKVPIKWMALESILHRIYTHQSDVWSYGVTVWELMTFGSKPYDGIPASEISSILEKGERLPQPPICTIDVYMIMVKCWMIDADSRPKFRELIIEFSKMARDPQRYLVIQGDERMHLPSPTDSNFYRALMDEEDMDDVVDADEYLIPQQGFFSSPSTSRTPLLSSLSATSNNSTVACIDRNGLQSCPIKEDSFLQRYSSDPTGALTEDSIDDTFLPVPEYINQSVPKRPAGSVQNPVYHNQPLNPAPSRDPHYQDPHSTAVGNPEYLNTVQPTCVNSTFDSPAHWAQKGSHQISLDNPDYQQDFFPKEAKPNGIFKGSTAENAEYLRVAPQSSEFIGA
EGFR wild type (EGFR WT), sequence (P00533 25-1210): as above
BCRP, sequence (Q9UNQ0 whole entry): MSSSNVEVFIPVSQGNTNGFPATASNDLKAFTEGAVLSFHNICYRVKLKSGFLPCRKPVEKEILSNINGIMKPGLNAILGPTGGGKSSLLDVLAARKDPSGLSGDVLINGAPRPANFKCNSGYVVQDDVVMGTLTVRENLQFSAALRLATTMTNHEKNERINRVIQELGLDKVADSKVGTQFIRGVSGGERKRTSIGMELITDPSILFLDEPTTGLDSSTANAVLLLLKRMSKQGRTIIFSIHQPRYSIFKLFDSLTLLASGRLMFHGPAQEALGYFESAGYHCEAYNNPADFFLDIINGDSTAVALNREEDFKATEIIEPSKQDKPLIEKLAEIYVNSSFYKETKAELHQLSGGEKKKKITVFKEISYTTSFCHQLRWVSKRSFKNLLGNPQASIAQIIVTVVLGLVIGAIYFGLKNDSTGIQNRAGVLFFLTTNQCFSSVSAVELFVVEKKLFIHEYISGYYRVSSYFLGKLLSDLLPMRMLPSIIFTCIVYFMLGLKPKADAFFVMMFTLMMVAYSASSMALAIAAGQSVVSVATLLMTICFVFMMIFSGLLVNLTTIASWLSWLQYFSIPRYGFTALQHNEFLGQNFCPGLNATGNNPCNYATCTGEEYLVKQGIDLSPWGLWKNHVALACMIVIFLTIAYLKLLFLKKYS

In general, IC50 refers to the concentration that inhibits the measured activity by half. The efflux ratio is a quotient of directional permeabilities that is used to spot active efflux. Take `Cc1cc(Nc2ncnc3cnc(N4C[C@H]5CCS(=O)(=O)[C@H]5C4)nc23)ccc1Oc1ccc2c(c1)ncn2C` (racemic) [Example 92, rac-(3aR,6aR)-5-(8-((3-methyl-4-((1-methyl-1H-benzo[d]imidazol-5-yl)oxy)phenyl)amino)pyrimido[5,4-d]pyrimidin-2-yl)hexahydro-2H-thieno[2,3-c]pyrrole 1,1-dioxide]: the IC50 is 23.3 nM in data set [1]; 10.7 nM in data set [2] (read-out: Assay 1 IC50); 8780 nM in data set [3]; 18.9 nM in data set [5]; not below 5000 nM in data set [6]. The efflux ratio at 2 h, 1 μM in data set [4] came to 3.8.

In the case of `CO[C@@H]1CN(c2ncc3ncnc(Nc4ccc(Oc5ccc6c(c5)ncn6C)c(C)c4)c3n2)C[C@H]1O` (racemic) [Example 107, ±(3R,4R)-4-methoxy-1-(8-((3-methyl-4-((1-methyl-1H-benzo[d]imidazol-5-yl)oxy)phenyl)amino)pyrimido[5,4-d]pyrimidin-2-yl)pyrrolidin-3-ol], the IC50 in data set [1] is 31.3 nM; in data set [2] (read-out: Assay 1 IC50), 30.8 nM; in data set [3] it was not below 10000 nM; in data set [5], 15.5 nM; in data set [6], not below 5000 nM. Moreover, the efflux ratio at 2 h, 1 μM in data set [4] came out at 3.2.

Consider `Cc1cc(Nc2ncnc3cnc(N(C)[C@@H]4CNC[C@@H]4F)nc23)ccc1Oc1ccc2c(c1)ncn2C` [Example 94, N2-((3R,4S)-4-fluoropyrrolidin-3-yl)-N2-methyl-N8-(3-methyl-4-((1-methyl-1H-benzo[d]imidazol-5-yl)oxy)phenyl)pyrimido[5,4-d]pyrimidine-2,8-diamine], for which the IC50 in data set [1] was 20.3 nM; in data set [2] (read-out: Assay 1 IC50), 21.3 nM; in data set [3], 4360 nM; in data set [5], 31.3 nM; in data set [6], not below 5000 nM. For the same compound, the efflux ratio at 2 h, 1 μM in data set [4] was determined as 12.

With `Cc1c(Oc2ccc3c(c2)ncn3C)ccc(Nc2ncnc3cnc(N4CC[C@](C)(O)C4)nc23)c1F` [Example 97, (S)-1-(8-((2-fluoro-3-methyl-4-((1-methyl-1H-benzo[d]imidazol-5-yl)oxy)phenyl)amino)pyrimido[5,4-d]pyrimidin-2-yl)-3-methylpyrrolidin-3-ol], the 50% inhibitory concentration (IC50) was 47.5 nM in data set [1]; 14.2 nM in data set [2] (read-out: Assay 1 IC50); not below 10000 nM in data set [3]; 31 nM in data set [5]; not below 5000 nM in data set [6]. For the same compound, the efflux ratio at 2 h, 1 μM in data set [4] amounted to 2.

Regarding `CN(CCC(C)(C)O)c1ncc2ncnc(Nc3ccc(Oc4ccn5ncnc5c4)c(Cl)c3)c2n1` [Example 101, 4-((8-((4-([1,2,4]triazolo[1,5-a]pyridin-7-yloxy)-3-chlorophenyl)amino)pyrimido[5,4-d]pyrimidin-2-yl)(methyl)amino)-2-methylbutan-2-ol], the IC50 was 8.2 nM in data set [1]; 15.4 nM in data set [2] (read-out: Assay 1 IC50); not below 10000 nM in data set [3]; 14.7 nM in data set [5]; not below 5000 nM in data set [6]. For the same compound, in data set [4], the efflux ratio at 2 h, 1 μM came out at 1.5.

Regarding `Cn1cnc2cc(Oc3ccc(Nc4ncnc5cnc(N6CCC6)nc45)cc3Cl)ccc21.O=C(O)C(F)(F)F` [Example 148, 6-(azetidin-1-yl)-N-(3-chloro-4-((1-methyl-1H-benzo[d]imidazol-5-yl)oxy)phenyl)pyrimido[5,4-d]pyrimidin-4-amine 2,2,2-trifluoroacetate], the IC50 was 13 nM in data set [1]; 24.3 nM in data set [2] (Assay 1 IC50 (nM)); not below 10000 nM in data set [3]; 34 nM in data set [5]; not below 5000 nM in data set [6]. For the same compound, in data set [4], the efflux ratio at 2 h, 1 μM was determined as 1.3.

For `Cn1cnc2cc(Oc3ccc(Nc4ncnc5cnc(N6CC7C8CCC(O8)C7C6)nc45)cc3Cl)ccc21.O=C(O)C(F)(F)F` (stereo not drawn) [Example 149, N-(3-chloro-4-((1-methyl-1H-benzo[d]imidazol-5-yl)oxy)phenyl)-6-(octahydro-2H-4,7-epoxyisoindol-2-yl)pyrimido[5,4-d]pyrimidin-4-amine], the IC50 is 26.5 nM in data set [1]; 99 nM in data set [2] (Assay 1 IC50 (nM)); not below 10000 nM in data set [3]; 102 nM in data set [5]; not below 5000 nM in data set [6]. The efflux ratio at 2 h, 1 μM in data set [4] is 1.

With `Cn1cnc2cc(Oc3ccc(Nc4ncnc5cnc(N6CCN7CCOC[C@H]7C6)nc45)cc3Cl)ccc21.O=C(O)C(F)(F)F.O=C(O)C(F)(F)F` [Example 150, (R)—N-(3-chloro-4-((1-methyl-1H-benzo[d]imidazol-5-yl)oxy)phenyl)-6-(hexahydropyrazino[2,1-c][1,4]oxazin-8(1H)-yl)pyrimido[5,4-d]pyrimidin-4-amine bis(2,2,2-trifluoroacetate)], the IC50 in data set [1] was 9.1 nM; in data set [2] (Assay 1 IC50 (nM)), 32 nM; in data set [3], not below 10000 nM; in data set [5], 22.3 nM; in data set [6], not below 5000 nM. For the same compound, the efflux ratio at 2 h, 1 μM in data set [4] is 2.2.

On to `Cn1cnc2cc(Oc3ccc(Nc4ncnc5cnc(N6CCN7CCOC[C@@H]7C6)nc45)cc3Cl)ccc21.O=C(O)C(F)(F)F.O=C(O)C(F)(F)F` [Example 151, (S)—N-(3-chloro-4-((1-methyl-1H-benzo[d]imidazol-5-yl)oxy)phenyl)-6-(hexahydropyrazino[2,1-c][1,4]oxazin-8(1H)-yl)pyrimido[5,4-d]pyrimidin-4-amine bis(2,2,2-trifluoroacetate)], for which the IC50 was 18.8 nM in data set [1]; 24.6 nM in data set [2] (Assay 1 IC50 (nM)); not below 10000 nM in data set [3]; 61.4 nM in data set [5]; not below 5000 nM in data set [6]. In addition, the efflux ratio at 2 h, 1 μM in data set [4] amounted to 1.2.

For the compound `Cc1cc(Nc2ncnc3cnc(N4CC[C@H](F)[C@@H](O)C4)nc23)ccc1Oc1ccc2c(c1)ncn2C` [Example 162, (3S,4S)-4-fluoro-1-(8-((3-methyl-4-((1-methyl-1H-benzo[d]imidazol-5-yl)oxy)phenyl)amino)pyrimido[5,4-d]pyrimidin-2-yl)piperidin-3-ol], the IC50 in data set [1] was 36.4 nM; in data set [2] (read-out: Assay 1 IC50) it was 19.4 nM; in data set [3] it was 7360 nM; in data set [5], 31.6 nM; in data set [6] it was not below 5000 nM. Also, the efflux ratio at 2 h, 1 μM in data set [4] amounted to 2.8.

Take `Cc1cc(Nc2ncnc3cnc(N(C)C[C@H](C)O)nc23)ccc1Oc1ccc2c(c1)ncn2C` [Example 195, (S)-1-(methyl(8-((3-methyl-4-((1-methyl-1H-benzo[d]imidazol-5-yl)oxy)phenyl)amino)pyrimido[5,4-d]pyrimidin-2-yl)amino)propan-2-ol]: the IC50 was 10.1 nM in data set [1], 17.3 nM in data set [2] (read-out: Assay 1 IC50), 7290 nM in data set [3] and not below 5000 nM in data set [6]. Also, in data set [4], the efflux ratio at 2 h, 1 μM came out at 4.6.

As for `Cc1cc(Nc2ncnc3cnc(N4CCOC(C)(C)C4)nc23)ccc1Oc1ccc2c(c1)ncn2C` [Example 272], the IC50 in data set [1] was 40.2 nM; in data set [2] (read-out: Assay 1 IC50), 67.3 nM; in data set [3], 9000 nM; in data set [5], 104 nM; in data set [6] it was not below 5000 nM. In addition, the efflux ratio at 2 h, 1 μM in data set [7] is 1.6; in data set [8], 0.6.

For the compound `Cc1cc(Nc2ncnc3cnc(N4C[C@@H]5C[C@H]4CO5)nc23)ccc1Oc1ccc2c(c1)ncn2C` [Example 274], the IC50 in data set [1] was 12.1 nM; in data set [2] (read-out: Assay 1 IC50), 30.7 nM; in data set [3], 3250 nM; in data set [5], 38.8 nM; in data set [6], not below 5000 nM. Besides, the figures for the efflux ratio at 2 h, 1 μM in data set [7] and in data set [8] were 2.4 and 1.7, respectively.

With `Cc1cc(Nc2ncnc3cnc(N4CC5(CCO5)C4)nc23)ccc1Oc1ccc2c(c1)ncn2C` [Example 282], the IC50 in data set [1] is 26.3 nM; in data set [2] (read-out: Assay 1 IC50), 40 nM; in data set [3], not below 10000 nM; in data set [5], 83.9 nM; in data set [6], not below 5000 nM. Besides, the efflux ratio at 2 h, 1 μM turned out to be 1.9 in data set [7] and 3.5 in data set [8].

With `Cc1cc(Nc2ncnc3cnc(N(C)CC4CCO4)nc23)ccc1Oc1ccc2c(c1)ncn2C` (stereo not drawn) [Example 350], the IC50 was 26.3 nM in data set [1]; 40 nM in data set [2] (read-out: Assay 1 IC50); not below 10000 nM in data set [3]; 83.9 nM in data set [5]; not below 5000 nM in data set [6]. Moreover, the efflux ratio at 2 h, 1 μM in data set [7] came to 1.9; in data set [8], 3.5.

Values taken from patent publication US11834453B2, “Substituted pyrimido[5,4-d]pyrimidines as HER2 inhibitors” (Array BioPharma Inc., priority 2020, dated 2023).
